In the test the target is T1, human renal renin (Homo sapiens, UniProt P00797).
T1 construct: human renal renin, free from acid proteolytic activity; from tissue; host or cells: human kidney (from the word 'renal')
T1 sequence (P00797 67-406): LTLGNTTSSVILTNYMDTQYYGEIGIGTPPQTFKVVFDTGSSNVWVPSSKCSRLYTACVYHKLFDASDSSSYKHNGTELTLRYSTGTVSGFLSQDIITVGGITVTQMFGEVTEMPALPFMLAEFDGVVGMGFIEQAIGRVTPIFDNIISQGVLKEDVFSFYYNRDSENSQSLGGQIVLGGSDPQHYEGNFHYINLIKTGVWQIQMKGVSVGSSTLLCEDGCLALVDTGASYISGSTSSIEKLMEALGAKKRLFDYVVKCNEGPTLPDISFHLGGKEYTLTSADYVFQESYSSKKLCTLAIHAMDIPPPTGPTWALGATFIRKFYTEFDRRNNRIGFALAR
The test is described as follows: inhibition of human renal renin in vitro, angiotensin I formed measured by radioimmunoassay. In kind it is biochemical. To be noted: human angiotensinogen substrate, 37 degrees C, pH 6.0. The protocol: At the end of the incubation, the amount of angiotensin I formed is measured by radioimmunoassay and the molar concentration required to cause 50% inhibition, expressed as the IC50, is calculated.

These results are taken from patent US4994477A, “Heterocyclic renin inhibitors” (Abbott Laboratories, priority 1988, dated 1991).

`COCOC[C@H](NC(=O)c1cc2ccccc2[nH]1)C(=O)N[C@@H](CC1CCCCC1)[C@@H](O)[C@@H](O)CC(C)C` [Example 150, N-(Indolyl-2-carbonyl)-(O-methoxymethyl)Ser Amide of 2(S)-Amino-1-cyclohexyl-3(R),4(S)-dihydroxy-6-methylheptane] gave an IC50 of 27 nM.

Consider `CC(C)C[C@H](O)[C@H](O)[C@H](CC1CCCCC1)NC(=O)[C@H](Cc1c[nH]cn1)NC(=O)c1ccc2ccccc2c1` [Example 151, N-(2-Napthoyl)-His Amide of 2(S)-Amino-1-cyclohexyl-3(R),4(S)-dihydroxy-6-methylheptane], for which the IC50 turned out to be 32 nM.

One may read the IC50 as the point on the concentration scale where inhibition reaches its midpoint. High values mean lower potency, low ones higher potency.
